Assay results taken from ChEMBL document CHEMBL5365453, “Synthesis and biological evaluation of xanthine derivatives with phenacyl group as tryptophan hydroxylase 1 (TPH1) inhibitors for obesity and fatty liver disease” (Bioorg Med Chem Lett, 2023).
pIC50: −log10 of the molar value. Calls of active or inactive are those of the source. The calls are words filed in the database; no cut-off is given here.

Key:
[1] = target: T1, Tryptophan 5-hydroxylase 1 (Homo sapiens) (UniProt P17752); test: Inhibition of TPH1 ( unknown origin ) at 1 uM relative to control
T1 sequence (whole entry): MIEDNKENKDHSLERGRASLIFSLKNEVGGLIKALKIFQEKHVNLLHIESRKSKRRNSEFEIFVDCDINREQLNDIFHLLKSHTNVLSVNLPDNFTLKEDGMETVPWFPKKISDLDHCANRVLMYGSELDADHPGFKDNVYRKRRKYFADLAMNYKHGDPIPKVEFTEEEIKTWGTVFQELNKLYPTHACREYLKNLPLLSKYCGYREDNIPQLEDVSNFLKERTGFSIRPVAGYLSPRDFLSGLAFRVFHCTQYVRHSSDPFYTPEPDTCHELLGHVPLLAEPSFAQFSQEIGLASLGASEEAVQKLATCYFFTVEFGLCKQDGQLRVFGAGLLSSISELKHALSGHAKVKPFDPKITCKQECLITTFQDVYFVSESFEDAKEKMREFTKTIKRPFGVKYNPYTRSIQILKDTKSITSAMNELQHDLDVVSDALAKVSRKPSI

[2] = target: T2, Tryptophan 5-hydroxylase 1 (Homo sapiens, UniProt P17752); test: Inhibition of TPH1 ( unknown origin )
T2 sequence (P17752 whole entry): T1 sequence (whole entry)

[3] = Stability in human liver microsomes assessed as compound remaining measured after 30 mins; format: ADME, Microsome; conditions: read-out: Stability
[4] = Stability in mouse liver microsomes assessed as compound remaining measured after 30 mins; format: ADME, Microsome; conditions: read-out: Stability
[5] = target: T3, Tryptophan 5-hydroxylase 1 (Mus musculus) (UniProt P17532); test: Inhibition of TPH1 in mouse 3T3-L1 cells assessed as suppression of insulin-induced adipocyte differentiation by measuring reduction in lipid droplet accumulation at 1 to 2 uM measured on day 7 post-adipogenesis induction by oil red O staining based phase-contrast light microscopy; format: cell-based; conditions: dose 1-2 µM, time 7.0 day
T3 sequence (whole entry): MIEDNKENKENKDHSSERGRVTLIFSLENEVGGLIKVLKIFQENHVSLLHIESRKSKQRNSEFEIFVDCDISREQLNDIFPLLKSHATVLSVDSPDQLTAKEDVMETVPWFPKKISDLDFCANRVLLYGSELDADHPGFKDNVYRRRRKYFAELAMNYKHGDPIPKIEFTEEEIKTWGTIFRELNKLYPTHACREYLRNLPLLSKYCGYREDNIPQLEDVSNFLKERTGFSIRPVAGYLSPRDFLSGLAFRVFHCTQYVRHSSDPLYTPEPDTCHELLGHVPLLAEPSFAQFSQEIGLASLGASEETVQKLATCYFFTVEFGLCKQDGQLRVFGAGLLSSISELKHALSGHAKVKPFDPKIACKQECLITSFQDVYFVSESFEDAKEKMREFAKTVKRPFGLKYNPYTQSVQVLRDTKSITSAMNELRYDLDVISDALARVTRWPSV

[6] = target: T3, Tryptophan 5-hydroxylase 1 (Mus musculus); test: Inhibition of TPH1 in mouse 3T3-L1 cells assessed as suppression of insulin-induced adipocyte differentiation by measuring reduction in lipid droplet accumulation at 1 to 2 uM measured on day 7 post-adipogenesis induction by oil red O staining based spectrophotometry; format: cell-based; conditions: dose 1-2 µM, time 7.0 day

| inhibition [1] [%] | Compound | further results |
| --- | --- | --- |
| 0 | CCn1c(=O)[nH]c(=O)c2c1nc(Cn1cnc3ccccc31)n2Cc1ccccc1 |  |
| 94.3 | CCn1c(=O)[nH]c(=O)c2c1nc(Cc1cn3ccsc3n1)n2CC(=O)c1ccc(O)cc1 | pIC50 [2]: 6.96; remaining at 0.5 h [3]: 80.4%; remaining at 0.5 h [4]: 77.3%; inhibition [5]: Active; inhibition [6]: Active |
| 32.6 | CCn1c(=O)[nH]c(=O)c2c1nc(Cc1cn3ccsc3n1)n2CC(=O)c1ccc(-c2ccccc2)cc1 |  |
| 39.4 | CCn1c(=O)[nH]c(=O)c2c1nc(Cc1cn3ccsc3n1)n2CC(=O)c1ccccc1 |  |
| 87.8 | CCn1c(=O)[nH]c(=O)c2c1nc(Cc1cn3ccsc3n1)n2CC(=O)c1ccc(N)cc1 | pIC50 [2]: 6.77; remaining at 0.5 h [3]: 95.3%; remaining at 0.5 h [4]: 80.8% |
| 47.2 | CCn1c(=O)[nH]c(=O)c2c1nc(Cc1cn3ccsc3n1)n2CC(=O)c1ccc(Br)cc1 |  |
| 66 | CCn1c(=O)[nH]c(=O)c2c1nc(Cc1cn3ccsc3n1)n2CC(=O)c1ccc(Cl)cc1 |  |
| 0 | CCn1c(=O)[nH]c(=O)c2c1nc(Cc1ccccc1)n2Cc1ccccc1 |  |
| 62.6 | CCn1c(=O)[nH]c(=O)c2c1nc(Cc1cn3ccsc3n1)n2CC(=O)c1ccc(F)cc1 |  |
| 0 | CCn1c(=O)[nH]c(=O)c2c1nc(C)n2Cc1ccccc1 |  |
| 6.2 | CCn1c(=O)n(Cc2ccccc2)c(=O)c2c1nc(Cc1cn3ccsc3n1)n2Cc1ccccc1 |  |
| 4.1 | CCn1c(=O)[nH]c(=O)c2c1nc(Cc1cn3ccsc3n1)n2CC(=O)Nc1ccc(OC)cc1 |  |
| 80.8 | CCn1c(=O)[nH]c(=O)c2c1nc(Cc1cn3ccsc3n1)n2CC(=O)c1ccc(OC(C)=O)cc1 |  |
| 87.9 | CCn1c(=O)[nH]c(=O)c2c1nc(Cc1cn3ccsc3n1)n2CC(=O)c1ccc(N=[N+]=[N-])cc1 |  |
| 0.3 | CCn1c(=O)[nH]c(=O)c2c1nc(Cc1cn3ccsc3n1)n2CC(=O)c1ccccc1OC |  |
| 0 | CCn1c(=O)[nH]c(=O)c2c1nc(Cn1ccnc1)n2Cc1ccccc1 |  |
| 0 | CCn1c(=O)[nH]c(=O)c2c1nc(Cc1cn3ccsc3n1)n2CC(O)c1ccc(Cl)cc1 (centres undefined) |  |
| 83 | CCn1c(=O)[nH]c(=O)c2c1nc(Cc1cn3ccsc3n1)n2CC(=O)c1ccc(CO)cc1 | pIC50 [2]: 6.56; remaining at 0.5 h [3]: 91.5%; remaining at 0.5 h [4]: 85.2% |
| 25.5 | CCn1c(=O)[nH]c(=O)c2c1nc(Cc1cn3ccsc3n1)n2C/C(=N/O)c1ccc(OC)cc1 |  |
| 38.9 | CCn1c(=O)[nH]c(=O)c2c1nc(Cc1cn3ccsc3n1)n2CC(=O)c1cccc(OC)c1 |  |
| 47.5 | CCn1c(=O)[nH]c(=O)c2c1nc(Cc1cn3ccsc3n1)n2CC(=O)c1ccc(C(F)(F)F)cc1 |  |
| 91.4 | CCn1c(=O)[nH]c(=O)c2c1nc(Cc1cn3ccsc3n1)n2CC(=O)c1ccc(OC)cc1 | pIC50 [2]: 6.74; remaining at 0.5 h [3]: 69%; remaining at 0.5 h [4]: 30% |

| Compound | inhibition [1] [%] | further results |
| --- | --- | --- |
| CCn1c(=O)[nH]c(=O)c2c1nc(Cc1cn3ccsc3n1)n2Cc1ccccc1 | 48.6 | pIC50 [2]: 5.94 |
| CCn1c(=O)[nH]c(=O)c2[nH]c(Cc3cn4ccsc4n3)nc21 | 10.2 |  |
